Results taken from ChEMBL document CHEMBL4422611, “A review on diverse heterocyclic compounds as the privileged scaffolds in antimalarial drug discovery” (Eur J Med Chem, 2018).
Values after ≈ are worked out from the molar mass of the structure shown.

Assays:
Plasmodium falciparum [1] = assay: Antimalarial activity against synchronized ring stage of Plasmodium falciparum infected in human RBC measured after 48 hrs; assay type: functional, organism-based
Plasmodium falciparum [2] = assay: Antimalarial activity against Plasmodium falciparum; assay type: functional, organism-based
Plasmodium falciparum [3] = assay: Antimalarial activity against synchronized ring stage of chloroquine-resistant Plasmodium falciparum RKL2 infected in human RBC assessed as parasite death at 5 ug/ml after 40 hrs by Giemsa staining based microscopic analysis relative to control; assay type: functional
Plasmodium falciparum [4] = assay: Antimalarial activity against synchronized ring stage of chloroquine-sensitive Plasmodium falciparum 3D7 infected in human RBC assessed as parasite death at 5 ug/ml after 40 hrs by Giemsa staining based microscopic analysis relative to control; assay type: functional
Plasmodium falciparum [5] = assay: Antimalarial activity against Plasmodium falciparum infected in human RBC after 72 hrs by Giemsa staining based assay; assay type: functional, organism-based

SMILES	IC50 (Plasmodium falciparum [1])	further results
Cc1nn(-c2ccccc2)c(-n2ccnc2)c1C1C(C#N)=C(N)Oc2c1c(=O)oc1ccccc21 (stereo not drawn)	0.42 µg/mL	
Cc1n[nH]c2c1C(c1c(C)nn(-c3ccccc3)c1-n1ccnc1)C(C#N)=C(N)O2 (stereo not drawn)	0.57 µg/mL	
Cc1nn(-c2ccccc2)c(Oc2ccccc2F)c1-c1nnc(-c2ccc(Br)cc2)o1	506 nM	
COc1ccc(NN2C(N)=C(C#N)C(c3c(C)nn(-c4ccccc4)c3Oc3cccc(C(F)(F)F)c3)C3=C2CC(C)(C)CC3=O)cc1 (stereo not drawn)		IC50 (Plasmodium falciparum [2]): 0.042 µg/mL (≈ 0.0642 µM)
Clc1ccc2c(NCCN3CCN(c4nc(N5CCOCC5)nc(N5CCOCC5)n4)CC3)ccnc2c1		Activity (Plasmodium falciparum [3]): 8%; Activity (Plasmodium falciparum [4]): 6%
CCOC(=O)C1=C(N)Oc2c(ccc(O)c2C)C1c1c(C)nn(-c2ccccc2)c1-n1ccnc1 (stereo not drawn)	0.061 µg/mL	
COc1ccc2nc(Cl)c(/C=C3\C=C(c4ccc(C)cc4C)OC3=O)cc2c1		IC50 (Plasmodium falciparum [5]): 0.5 µg/mL (≈ 1.28 µM)
Cc1nn(-c2ccccc2)c(-n2ccnc2)c1C1CC(c2ccc(Br)cc2)=NN1 (stereo not drawn)	0.012 µg/mL	
CCOC(=O)C1=C(N)Oc2c(c(=O)n(C)c(=O)n2C)C1c1c(C)nn(-c2ccccc2)c1-n1ccnc1 (stereo not drawn)	0.049 µg/mL	
Cc1nn(-c2ccccc2)c(-n2ccnc2)c1C1CC(c2ccc(O)cc2)=NN1 (stereo not drawn)	0.036 µg/mL	
Cc1n[nH]c2c1C(C1CCCCC1)c1c(n(C)c(=O)n(C)c1=O)N2 (stereo not drawn)	0.033 µg/mL	
Cc1nn(-c2ccccc2)c(-n2ccnc2)c1C1C(C#N)=C(N)Oc2ccc3ccccc3c21 (stereo not drawn)	0.32 µg/mL	

Second part, led by results:

IC50 (Plasmodium falciparum [1])	SMILES	further results
0.033 µg/mL	Cc1nn(-c2ccccc2)c2c1C(c1cccs1)c1c(n(C)c(=O)n(C)c1=O)N2 (stereo not drawn)	
0.036 µg/mL	Cc1nn(-c2ccccc2)c(-n2ccnc2)c1C1CC(c2ccc(Br)cc2)=NO1 (stereo not drawn)	
0.067 µg/mL	CCOC(=O)C1=C(N)OC2=C(C(=O)CC(C)(C)C2)C1c1c(C)nn(-c2ccccc2)c1-n1ccnc1 (stereo not drawn)	
0.034 µg/mL	Cc1nn(-c2ccccc2)c2c1C(c1c(C)nn(-c3ccccc3)c1-n1ccnc1)C(C#N)=C(N)O2 (stereo not drawn)	
0.54 µg/mL	Cc1nn(-c2ccccc2)c(-n2ccnc2)c1C1C(C#N)=C(N)Oc2c1ccc1ccccc21 (stereo not drawn)	
